From patent US20250381157A1, “ANTIMICROBIAL COMPOUNDS” (priority 2022, published 2025) come the findings set out here.

Data set [1] in a line: Stability SGD, SIF w. Enzymes. It counts as in vitro ADME.
The nature of data set [2]: Mouse ileum C-max after single PO dose. The data set is classed as in vivo.

Each structure is given as a SMILES string.

For the compound `C#CCOCC(=O)Nc1ccc(C(=O)Nc2ccccc2N)cc1` [Compound 1, N-(2-aminophenyl)-4-{2-[(prop-2-yn-1-yl)oxy]acetamido}benzamide], the “Stability SGD, SIF w. Enzymes” value in data set [1] is “High”. For the same compound, in data set [2] (PO single 5 mg/kg), the “PO single 5 mg/kg mouse - Ileum C-max” value is 0.9 µM. The “PO single 15 mg/kg mouse - Ileum C-max” value in data set [2] (PO single 15 mg/kg) is 2.0 µM. In addition, in data set [2] (PO single 50 mg/kg), the “PO single 50 mg/kg mouse - Ileum C-max” value was 7.1 µM.
